Data on 24 compounds can be found in ChEMBL document CHEMBL3352123, “Structure activity relationship study of curcumin analogues toward the amyloid-beta aggregation inhibitor” (Bioorg Med Chem Lett, 2014).

For series [1], the target named is Amyloid-beta precursor protein (Homo sapiens) (UniProt P05067). Briefly: Inhibition of amyloid beta-42 self-aggregation (unknown origin) at 25 uM after 20 hrs by ThT fluorescence assay.
The nature of series [2]: Aqueous solubility of the compound after 12 hrs by shake-flask method. The format is physicochemical. The note with it: buffer.

Broadly, the inhibition is the relative decrease from the control value, in per cent. What is called solubility (thermodynamic) is the concentration in solution at equilibrium with solid.

≈ marks a conversion by molar mass, not a printed value.

Sequence of Amyloid-beta precursor protein (Homo sapiens) (P05067 whole entry): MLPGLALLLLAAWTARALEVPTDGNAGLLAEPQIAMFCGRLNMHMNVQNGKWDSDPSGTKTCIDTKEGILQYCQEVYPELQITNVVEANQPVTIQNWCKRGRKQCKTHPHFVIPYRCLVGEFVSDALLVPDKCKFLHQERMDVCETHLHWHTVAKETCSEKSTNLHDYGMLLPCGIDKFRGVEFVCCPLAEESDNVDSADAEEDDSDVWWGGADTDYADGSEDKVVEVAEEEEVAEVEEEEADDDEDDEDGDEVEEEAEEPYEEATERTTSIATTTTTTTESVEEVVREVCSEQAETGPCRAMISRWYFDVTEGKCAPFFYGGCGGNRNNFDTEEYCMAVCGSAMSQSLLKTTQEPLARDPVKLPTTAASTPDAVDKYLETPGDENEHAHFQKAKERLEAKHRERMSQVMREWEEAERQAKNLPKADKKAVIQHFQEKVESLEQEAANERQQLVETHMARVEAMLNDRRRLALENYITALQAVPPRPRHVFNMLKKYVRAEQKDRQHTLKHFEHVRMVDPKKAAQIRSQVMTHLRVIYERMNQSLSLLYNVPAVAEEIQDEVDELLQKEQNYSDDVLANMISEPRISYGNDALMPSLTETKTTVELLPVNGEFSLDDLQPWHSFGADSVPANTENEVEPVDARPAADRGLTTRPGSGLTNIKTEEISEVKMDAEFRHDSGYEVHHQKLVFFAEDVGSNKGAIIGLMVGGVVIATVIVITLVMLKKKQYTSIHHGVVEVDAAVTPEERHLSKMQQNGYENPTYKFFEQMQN

Compound `O=C(/C=C/c1cccc(O)c1)CC(=O)/C=C/c1cccc(O)c1` had an inhibition in series [1] of 79%.
As for `COc1ccc(/C=C/C(=O)/C=C(O)/C=C/c2ccc(OC)c(OC)c2)cc1OC`, the inhibition in series [1] was found to be 0%.
Consider `O=C(/C=C/c1ccc(O)cc1)CC(=O)/C=C/c1ccc(O)c(O)c1`, for which the thermodynamic solubility at 12 h in series [2] turned out to be 0.66 µM (≈ 0.214 µg/mL). In addition, in series [1], the inhibition stood at 89%.
`O=C(/C=C/c1cccc(O)c1)CC(=O)/C=C/c1ccc(O)c(O)c1` yielded a thermodynamic solubility at 12 h in series [2] of 6.2 µM (≈ 2.01 µg/mL). This compound also had an inhibition in series [1] of 99%.
On to `N#Cc1cccc(/C=C/C(=O)CC(=O)/C=C/c2ccc(O)c(O)c2)c1`, for which, in series [1], the inhibition stood at 96%.
With `COc1cc(/C=C/C(=O)C(C)(C)C(=O)/C=C/c2ccc(O)c(OC)c2)ccc1O`, the solubility (thermodynamic) at 12 h in series [2] came out at 12 µM (≈ 4.76 µg/mL). Also, the inhibition in series [1] amounted to 30%.
Taken in the same sequence, the figures for `O=C(/C=C/c1cc(O)c(O)c(O)c1)CC(=O)/C=C/c1ccccc1O` were 47 µM (≈ 16 µg/mL) and 73%.
For `COc1c(O)cc(/C=C/C(=O)CC(=O)/C=C/c2ccc(O)c(O)c2)cc1O`, in that order: 5.4 µM (≈ 2 µg/mL) and 100%.
For `COc1ccc(/C=C/C(=O)CC(=O)/C=C/c2ccc(O)c(O)c2)cc1`, in that order: 0.009 µM (≈ 0.00305 µg/mL) and 95%.
With `O=C(/C=C/c1ccc(O)c(O)c1)CC(=O)/C=C/c1ccc(O)c(O)c1` [DIDEMETHYLCURCUMIN], the thermodynamic solubility at 12 h in series [2] was 2.4 µM (≈ 0.817 µg/mL). Further, in series [1], the inhibition came to 99%.
For `Oc1ccc(/C=C/c2cc(/C=C/c3ccccc3O)[nH]n2)cc1O`, in that order: 16 µM (≈ 5.13 µg/mL) and 47%.
For `O=C(/C=C/c1ccc(O)c(O)c1)CC(=O)/C=C/c1ccccc1O`, in that order: 31 µM (≈ 10.1 µg/mL) and 100%.
`O=C(/C=C/c1ccccc1O)CC(=O)/C=C/c1ccccc1O` displayed an inhibition in series [1] of 80%.
In turn, `COc1cccc(/C=C/C(=O)CC(=O)/C=C/c2ccc(O)c(O)c2)c1` displayed a solubility (thermodynamic) at 12 h in series [2] of 0.11 µM (≈ 0.0372 µg/mL). This compound also gave an inhibition in series [1] of 95%.
For `COc1cc(/C=C/c2cc(/C=C/c3ccc(O)c(OC)c3)[nH]n2)ccc1O` [CURCUMIN PYRAZOLE], in that order: 1.2 µM (≈ 0.437 µg/mL) and 51%.
As for `Oc1cccc(/C=C/c2cc(/C=C/c3ccc(O)c(O)c3)n[nH]2)c1`, in series [2], the thermodynamic solubility at 12 h turned out to be 10 µM (≈ 3.2 µg/mL).
The compound `O=C(/C=C/c1ccc(O)c(O)c1)CC(=O)/C=C/c1cc(O)c(O)c(O)c1` registered a thermodynamic solubility at 12 h in series [2] of 50 µM (≈ 17.8 µg/mL). In series [1], this compound had an inhibition of 100%.
Compound `O=C(/C=C/c1cccc([N+](=O)[O-])c1)CC(=O)/C=C/c1ccc(O)c(O)c1` had an inhibition in series [1] of 97%.
In the case of `Oc1ccc(/C=C/c2cc(/C=C/c3ccc(O)c(O)c3)[nH]n2)cc1O`, in series [2], the solubility (thermodynamic) at 12 h worked out at 98 µM (≈ 33 µg/mL). The inhibition in series [1] turned out to be 90%.
In series [1], `O=C(/C=C/c1ccc(O)cc1)CC(=O)/C=C/c1ccc(O)cc1` came in with an inhibition of 75%.
`COc1cc(/C=C/C(=O)CC(=O)/C=C/c2ccc(O)c(O)c2)cc(OC)c1OC` registered an inhibition in series [1] of 95%.
In series [2], `O=C(/C=C/c1cc(O)c(O)c(O)c1)CC(=O)/C=C/c1cc(O)c(O)c(O)c1` had a thermodynamic solubility at 12 h of 6.2 µM (≈ 2.31 µg/mL). The compound also returned an inhibition in series [1] of 46%.
In series [2], `COc1ccccc1/C=C/C(=O)CC(=O)/C=C/c1ccc(O)c(O)c1` gave a solubility (thermodynamic) at 12 h of 0.12 µM (≈ 0.0406 µg/mL). For the same compound, the inhibition in series [1] was determined as 100%.
For `COc1cc(/C=C/C(=O)CC(=O)/C=C/c2ccc(O)c(OC)c2)ccc1O` [CURCUMIN], in that order: 0.19 µM (≈ 0.07 µg/mL) and 80%.
